Data as given in patent publication US6696493B2, “Treating chronic uremic patients undergoing periodic dialysis” (Sigma-Tau Industrie Farmaceutiche Riunite S.p.A., priority 2000, dated 2004).
“Also recorded” adds a separate entry of the source.

What was measured:
[1] = tested on: patients; settings: oral supplementation, cited from earlier work
[2] = tested on: perfused heart; test: low-pressure or low-flow ischaemia model, perfused heart (Langendorff)
Text: In this example, the low-pressure or low-flow ischaemia model was used, which is a model recognised as valid for cardiac ischaemia (Bolukoglu, H. et al. Am. J. Physiol. 1996: 270; H817-26).
The treatment schedule is illustrated in FIG. 1., in which the letters A-F denote the heart effluent sampling times for the measurement of metabolites. The hearts are removed from the animals and mounted on a Langerdorff appliance. The perfusion medium replacing the blood was a Krebs-Heinsleit standard bicarbonate buffer containing glucose 12 mM as energy source for cardiac metabolism.
After 30 minute perfusion at a pressure of 100 cm of water, ischaemia was induced by reducing the perfusion pressure of the heart to 25 cm of water, thus reducing coronary flow from approximately 2 ml/min to approximately 0.3 ml/min. Reduction of the perfusion pressure gives rise to ischaemia, since the heart will pump the fluid in the low-perfusion area rather than via the coronary bloodstream, supplying the flow to the heart.
This control model was compared with hearts perfused with L-carnitine 10 mM or L-carnitine fumarate 10 mM.
Cardiac function was tested in three different ways.
In the first, the NRM ^31P signal was monitored in real time.
This signal provides the best indication of the energy status of the heart.
In the second, the haemodynamics of the heart was measured by means of a pressure transducer mounted to measure the perfusion pressure. The haemodynamic measurements include heart rate, relative dP/dt (measurement of the contraction force of the heart) and the cardiac contraction amplitude. Coronary flow was also measured as an indicator of the heart's ability to provide oxygen and energy for its own metabolism.
In the third type of test, the metabolites and the enzyme LDH released by the heart were analysed in the effluent. The release of LDH indicates damage to cardiac tissue. The release of metabolites by the heart was tested by means of mass spectrometry coupled with gas chromatography.
The procedures of example 1 were substantially repeated, with the addition of a treatment with carnitine alone as a further control.

[3] = tested on: maintenance hemodialysis patients; settings: i.v. 20 mg/kg after each dialysis session; cited from earlier work
[4] = tested on: hemodialysis patients; settings: i.v. 20 mg/kg for six months, then 10 mg/kg, after each dialysis session; cited from earlier work
[5] = cited from earlier work
[6] = 10 mM, post-ischemic, vs control hearts

C[N+](C)(C)C[C@H](O)CC(=O)[O-] [carnitine, L-carnitine]
quality of life, early stage of treatment ([1]; early stage of treatment): effective in improving the quality of life | quality of life, long term treatment ([1]; long term treatment (six months)): not sustained | ATP peaks (alpha, beta, gamma phosphate, 31P NMR) ([2]; Example 2, after 40 minutes of ischaemia, FIG. 2): lacking | dialytic symptoms [3]: decrease | effect on serum lipid profile [3]: does not seem to have a great lipid-lowering potential | exercise capability, sense of well being [3]: improvement | abnormal serum fatty acid profile [4]: partial correction | bioavailability through the oral route [5]: subject to saturation mechanism

C[N+](C)(C)C[C@H](O)CC(=O)[O-].O=C(O)/C=C/C(=O)O [carnitine fumarate, L-carnitine fumarate]
release of LDH in heart effluent ([2]; 10 mM in perfusion medium, low-flow ischaemia, vs control hearts, fumarate): reduced release of LDH; also recorded: affords protection against ischemic damage | reserves of high-energy phosphate (creatine phosphate, 31P NMR) ([2]; 10 mM, after 45 minutes of ischaemia, vs control hearts): greater in treated hearts | malate released by the heart (effluent) ([2]; 10 mM, low-flow ischaemia, GC-MS of effluent): more malate | lactate released by the heart (effluent) ([2]; 10 mM, low-flow ischaemia, GC-MS of effluent, fumarate): less lactate; also recorded: lactate reduction | coronary flow [2, 6]: greater | post-ischemic cardiac contraction amplitude [2, 6]: greater | succinate released by the heart (effluent) ([2]; Example 2, FIG. 3B, compared to lactate): low amount of succinate as compared to lactate
